Measured values published in ChEMBL document CHEMBL6120963, “Discovery of Novel PROTAC SIRT6 Degraders with Potent Efficacy against Hepatocellular Carcinoma” (J Med Chem, 2024).
Active and inactive are the calls of the source. The calls are words filed in the database; no cut-off is given here.

Tests used:
[1] = Toxicity in BALB/c nude mouse xenografted with human SK-HEP1 cells assessed as histopathological abnormalities in lungs at 10 mg/kg treated for 28 to 30 days by H and E staining based analysis; format: organism-based; conditions: in vivo, time 28-30 day
[2] = target: T1, Protein cereblon/NAD-dependent protein deacylase sirtuin-6 (Homo sapiens, UniProt Q8N6T7+Q96SW2); test: PROTAC activity at CRBN/SIRT6 in human SK-HEP1 cells assessed as induction of SIRT6 degradation at 1 uM incubated for 24 to 36 hrs by Western blot analysis; format: cell-based; conditions: time 24-36 hrs
T1 sequence (Q8N6T7 2-355 limits assumed): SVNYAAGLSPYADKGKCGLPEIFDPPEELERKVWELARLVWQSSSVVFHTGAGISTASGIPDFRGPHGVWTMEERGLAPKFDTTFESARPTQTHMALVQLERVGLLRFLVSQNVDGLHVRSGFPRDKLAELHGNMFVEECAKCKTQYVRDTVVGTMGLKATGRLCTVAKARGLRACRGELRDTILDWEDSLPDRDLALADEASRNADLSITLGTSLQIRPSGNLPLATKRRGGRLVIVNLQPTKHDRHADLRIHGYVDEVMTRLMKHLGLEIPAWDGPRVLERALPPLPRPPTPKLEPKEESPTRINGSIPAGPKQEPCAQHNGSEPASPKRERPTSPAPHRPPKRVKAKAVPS
T1 sequence (Q96SW2 whole entry partner): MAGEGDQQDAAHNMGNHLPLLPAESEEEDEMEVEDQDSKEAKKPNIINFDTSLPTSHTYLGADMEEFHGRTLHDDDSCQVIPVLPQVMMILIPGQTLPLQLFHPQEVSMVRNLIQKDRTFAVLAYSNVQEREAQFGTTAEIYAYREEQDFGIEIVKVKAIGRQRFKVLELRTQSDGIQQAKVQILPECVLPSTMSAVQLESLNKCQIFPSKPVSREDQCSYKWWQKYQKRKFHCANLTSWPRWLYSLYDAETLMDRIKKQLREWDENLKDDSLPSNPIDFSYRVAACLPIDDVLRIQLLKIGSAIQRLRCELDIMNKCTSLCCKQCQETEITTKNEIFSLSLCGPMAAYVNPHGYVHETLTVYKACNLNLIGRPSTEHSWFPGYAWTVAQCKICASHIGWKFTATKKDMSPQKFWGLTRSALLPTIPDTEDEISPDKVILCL

SK-HEP1 [3] = test: Downregulation of NAIF1 expression in human SK-HEP1 cells at 2.5 uM incubated for 36 hrs in presence of MLN4924; format: functional, cell-based
[4] = Toxicity in BALB/c nude mouse xenografted with human SK-HEP1 cells assessed as body weight loss at 10 mg/kg treated for 28 to 30 days; format: organism-based; conditions: in vivo, time 28-30 day
SK-HEP1 [5] = test: Effect of genes related to cell apoptosis in human SK-HEP1 cells at 2.5 uM incubated for 36 hrs by GSEA analysis; format: functional, cell-based
SK-HEP1 [6] = test: Effect of SIRT1 mRNA expression in human SK-HEP1 cells at 2.5 uM incubated for 36 hrs by RT-qPCR analysis; format: functional, cell-based
SK-HEP1 [7] = test: Induction of apoptosis in human SK-HEP1 cells at 2.5 uM incubated for 72 hrs in presence of CPT by Annexin V-FITC/PI staining based flow cytometry; format: functional, cell-based
[8] = target: T1, Protein cereblon/NAD-dependent protein deacylase sirtuin-6; test: PROTAC activity at CRBN/SIRT6 in pomalidomide-treated human SK-HEP1 cells assessed as induction of SIRT6 degradation at 2.5 uM treated for 36 hrs by Western blot analysis; format: cell-based
[9] = Toxicity in BALB/c nude mouse xenografted with human SK-HEP1 cells assessed as pathological damage in spleen at 10 mg/kg treated for 28 to 30 days by H and E staining based analysis; format: organism-based; conditions: in vivo, time 28-30 day
SK-HEP1 [10] = test: Effect of ABI3BP mRNA expression in human SK-HEP1 cells at 2.5 uM incubated for 36 hrs by RNA sequencing analysis; format: functional, cell-based
SK-HEP1 [11] = test: Effect of genes related to protein heterodimerization in human SK-HEP1 cells at 2.5 uM incubated for 36 hrs by GSEA analysis; format: functional, cell-based
SK-HEP1 [12] = test: Downregulation of ANKRD44 expression in human SK-HEP1 cells at 2.5 uM incubated for 36 hrs; format: functional, cell-based
SK-HEP1 [13] = test: Antitumor activity against human SK-HEP1 cells xenografted in BALB/c nude mouse at 10 mg/kg treated for 28 to 30 days relative to control; format: functional; conditions: time 28-30 day
[14] = Toxicity in BALB/c nude mouse xenografted with human SK-HEP1 cells assessed as pathological damage in spleen at 10 mg/kg treated for 28 to 30 days in presence of sorafenib by H and E staining based analysis; format: organism-based; conditions: in vivo, time 28-30 day
SK-HEP1 [15] = test: Effect of POSTN mRNA expression in human SK-HEP1 cells at 2.5 uM incubated for 36 hrs by RNA sequencing analysis; format: functional, cell-based
SK-HEP1 [16] = test: Downregulation of FBXO44 expression in human SK-HEP1 cells at 2.5 uM incubated for 36 hrs in presence of MG132; format: functional, cell-based
SK-HEP1 [17] = test: Cytotoxicity against human SK-HEP1 cells harboring SIRT6 siRNA incubated for 72 hrs by CCK8 assay; format: functional, cell-based
SK-HEP1 [18] = test: Effect of genes related to ubiquitin-mediated proteolysis in human SK-HEP1 cells at 2.5 uM incubated for 36 hrs by GSEA analysis; format: functional, cell-based
SK-HEP1 [19] = test: Inhibition of colony formation in human SK-HEP1 cells at 2.5 uM incubated for 10 to 14 days with replacement of medium containing compounds on every 3 days combined with irradiation (3 Gy) by crystal violet staining based analysis; format: functional, cell-based; conditions: time 10-14 day
SK-HEP1 [20] = test: Effect of genes related to DNA replication in human SK-HEP1 cells at 2.5 uM incubated for 36 hrs by GSEA analysis; format: functional, cell-based
[21] = Toxicity in BALB/c nude mouse xenografted with human SK-HEP1 cells assessed as histopathological abnormalities in spleen at 10 mg/kg treated for 28 to 30 days in presence of sorafenib by H and E staining based analysis; format: organism-based; conditions: in vivo, time 28-30 day
SK-HEP1 [22] = test: Inhibition of colony formation in human SK-HEP1 cells at 5 uM incubated for 10 to 14 days with replacement of medium containing compounds on every 3 days combined with irradiation (3 Gy) by crystal violet staining based analysis; format: functional, cell-based; conditions: time 10-14 day
SK-HEP1 [23] = test: Downregulation of ALDOB expression in human SK-HEP1 cells at 2.5 uM incubated for 36 hrs; format: functional, cell-based
[24] = Toxicity in BALB/c nude mouse xenografted with human SK-HEP1 cells assessed as pathological damage in spleen at 10 mg/kg treated for 28 to 30 days under irradiation (3 Gy) by H and E staining based analysis; format: organism-based; conditions: in vivo, time 28-30 day
SK-HEP1 [25] = test: Antitumor activity against human SK-HEP1 cells xenografted in BALB/c nude mouse assessed as tumor growth suppression at 10 mg/kg treated for 28 to 30 days; format: functional, organism-based; conditions: time 28-30 day
[26] = Toxicity in BALB/c nude mouse xenografted with human SK-HEP1 cells assessed as pathological damage in lungs at 10 mg/kg treated for 28 to 30 days in presence of sorafenib by H and E staining based analysis; format: organism-based; conditions: in vivo, time 28-30 day
[27] = Toxicity in BALB/c nude mouse xenografted with human SK-HEP1 cells assessed as histopathological abnormalities in spleen at 10 mg/kg treated for 28 to 30 days by H and E staining based analysis; format: organism-based; conditions: in vivo, time 28-30 day
[28] = target: T1, Protein cereblon/NAD-dependent protein deacylase sirtuin-6; test: PROTAC activity at CRBN/SIRT6 in MLN4924-treated human SK-HEP1 cells assessed as induction of SIRT6 degradation at 2.5 uM treated for 36 hrs by Western blot analysis; format: cell-based
[29] = target: T1, Protein cereblon/NAD-dependent protein deacylase sirtuin-6; test: PROTAC activity at CRBN/SIRT6 in human SK-HEP1 cells assessed as induction of SIRT6 degradation at 2 uM incubated for 36 hrs by In-Cell ELISA relative to control; format: cell-based
SK-HEP1 [30] = test: Effect of H2BC21 mRNA expression in human SK-HEP1 cells at 2.5 uM incubated for 36 hrs by RNA sequencing analysis; format: functional, cell-based
SK-HEP1 [31] = test: Downregulation of CCPG1 expression in human SK-HEP1 cells at 2.5 uM incubated for 36 hrs; format: functional, cell-based
SK-HEP1 [32] = test: Induction of apoptosis in human SK-HEP1 cells xenografted in BALB/c nude mouse assessed as increase in cleaved caspase-3 level at 10 mg/kg treated for 28 to 30 days under irradiation (3 Gy); format: functional, organism-based; conditions: time 28-30 day
SK-HEP1 [33] = test: Downregulation of CCPG1 expression in human SK-HEP1 cells at 2.5 uM incubated for 36 hrs in presence of MG132; format: functional, cell-based
[34] = Toxicity in BALB/c nude mouse xenografted with human SK-HEP1 cells assessed as pathological damage in lungs at 10 mg/kg treated for 28 to 30 days by H and E staining based analysis; format: organism-based; conditions: in vivo, time 28-30 day
[35] = target: T1, Protein cereblon/NAD-dependent protein deacylase sirtuin-6; test: PROTAC activity at CRBN/SIRT6 in human SK-HEP1 cells assessed as reduction in number of SIRT6 foci incubated for about 36 hrs by immunofluorescence based analysis; format: cell-based; conditions: dose <= 5.0 µM
SK-HEP1 [36] = test: Downregulation of NAIF1 expression in human SK-HEP1 cells at 2.5 uM incubated for 36 hrs; format: functional, cell-based

Activity [8]: inactive | Activity [28]: inactive | Activity [29]: 92.5% | Activity [35]: Dose-dependent-effect
SMILES: Nc1cc(N2CCN(CC3CCN(c4cc5c(cc4F)C(=O)N(C4CCC(=O)NC4=O)C5=O)CC3)CC2)ccc1[N+](=O)[O-] (stereo unspecified)
Activity [1]: Non-toxic | Activity [2]: Active; Reached A Plateau After 36 Hrs Of Treatment, But A Dramatic Reduction Observed | Activity (SK-HEP1 [3]): inactive | Activity [4]: Non-toxic | Activity (SK-HEP1 [5]): Active | Activity (SK-HEP1 [6]): No effect | Activity (SK-HEP1 [7]): Active | Activity [9]: Non-toxic | Activity (SK-HEP1 [10]): Active | Activity (SK-HEP1 [11]): Active | Activity (SK-HEP1 [12]): Active | T/C (SK-HEP1 [13]): 39.6% | Activity [14]: Non-toxic | Activity (SK-HEP1 [15]): Active | Activity (SK-HEP1 [16]): inactive | Activity (SK-HEP1 [17]): inactive | Activity (SK-HEP1 [18]): Active | inhibition (SK-HEP1 [19]): Active; Exhibited Superior To Compound Alone | Activity (SK-HEP1 [20]): Active | Activity [21]: Non-toxic | inhibition (SK-HEP1 [22]): Not active; Exhibited Weaker Inhibition | Activity (SK-HEP1 [23]): Active | Activity [24]: Non-toxic | Activity (SK-HEP1 [25]): Active | Activity [26]: Non-toxic | Activity [27]: Non-toxic | Activity (SK-HEP1 [30]): Active | Activity (SK-HEP1 [31]): Active | Activity (SK-HEP1 [32]): Active | Activity (SK-HEP1 [33]): inactive | Activity [34]: Non-toxic | Activity (SK-HEP1 [36]): Active
